Results on nine compounds are retold here after US10259781B2, “Imaging agents” (THE REGENTS OF THE UNIVERSITY OF MICHIGAN, priority 2012, dated 2019).

Each structure is given as a SMILES string.

Series [1] deals with cardiac sympathetic neurons. The experiment in a line: Isolated working rat heart model: neuronal uptake and clearance kinetics. How it is done:
(§1) The radiotracer was infused into the heart for 10 minutes to measure the tracer uptake rate into cardiac sympathetic neurons (Kup, shown in units of ml/min/g tissue wet). Then, the heart was infused with normal heart perfusate to measure the tracer clearance rate from the heart over 2 hours.
(§2) Experiments were conducted to test ^11C-phenoxyethylguanidine (PEG), e.g., to establish baseline values for the NET transport rate (Kup, expressed in units of mL perfusate/min/g wet) and the clearance rate from sympathetic neurons (T1/2, expressed in units of hours).

For series [2], the system named is cardiac sympathetic neurons (NET-mediated neuronal uptake). The description is as above. As to conditions: isolated working rat heart (perfused, ex vivo), read-out: clearance rate from sympathetic neurons, major half-time (T1/2) (converted). How it is done:
as §1, §2

Series [3] in a line: Metabolic breakdown in monkey plasma (reverse-phase HPLC of venous blood samples). It counts as in vivo, rhesus macaque monkey. The following applies: monkey plasma. How it is done: In some of the microPET studies, venous blood samples (e.g., n=6) were drawn to assess the metabolic breakdown of [^18F]4F-MHPG in plasma (see Table 1). Plasma was processed for injection onto a reverse-phase HPLC system equipped with a radiation detector. The percentages of intact parent tracer and radiolabeled metabolites were determined as a function of time. In this system, [^18F]4-MHPG has a retention time Rt of approximately 11.2 minutes while the main polar radiometabolite formed has an Rt of approximately 7.9 minutes.

Series [4] can be described thus: Biodistribution in rats. It counts as in vivo, rat. The following applies: 30 minutes after injection, n=5. How it is done: During the development of embodiments of the technology, data were collected from bioevaluation studies of [^18F]4F-MHPG. […]
During the development of embodiments of the technology provided herein, the biodistribution of [^18F]4F-MHPG into the organs of rats was assessed. In particular, four time points (Table 3) were collected and used to derive human radiation absorbed dose estimates using the OLINDA/EXM 1.0 software package (see, e.g., Stabin et al. (2005) “OLINDA/EXM; the second-generation personal computer software for internal dose assessment in nuclear medicine”, J Nucl Med. 46: 1023-7). […] These values were entered into the Dynamic Bladder model of OLINDA/EXM, assuming a 4.0-hour void interval. Organs with the highest absorbed dose estimates included the urinary bladder wall (0.666 rad/mCi), […] (0.221 rad/mCi), small intestine (0.201 rad/mCi), and the heart wall (0.201 rad/mCi). An ‘effective dose’ of 0.091 rem/mCi was estimated for [^18F]4F-MHPG. Under United States Federal Regulations governing research with a new radiopharmaceutical (21 CFR § 361.1), the maximum allowable radiation absorbed dose to an individual organ (other than the gonads) is 5 rad. Considering the maximum estimated absorbed dose (urinary bladder wall; 0.666 rad/mCi), initial PET studies in human subjects could use a maximum of 7.5 mCi of [^18F]4F-MHPG. This would correspond to an ‘effective dose’ of 0.68 rem.

The test system of series [5] is cardiac sympathetic nerve terminals. The experiment in a line: MicroPET imaging and myocardial kinetics (compartmental modeling, Patlak graphical analysis) in monkeys. It counts as in vivo, rhesus macaque monkey. The following applies: indirect evidence from myocardial kinetics in monkeys. How it is done: A series of microPET imaging studies were performed in the macaque model to assess image quality and tracer kinetics. In most of these the time course of the metabolic breakdown of [^18F]4F-MHPG in plasma was also determined. The studies are summarized below in Table 1.
During the development of embodiments of the technology provided herein, the kinetics of [^18F]4F-MHPG in monkey hearts was assessed using either compartmental modeling or Patlak graphical analysis to obtain quantitative measures of regional cardiac sympathetic nerve density.
For some analyses, a simplified compartmental model that assumed irreversible trapping inside nerve terminals was used to estimate the model rate constants K1 (ml/min/g), k2 (min^−1), k3 (min^−1), and a blood volume fraction BV (dimensionless) (see, e.g., FIG. 7). In both the control studies and DMI blocking studies, the model quickly converged to a single global minimum in just a few iterations of the nonlinear regression analysis (FIG. 8). […] This aggregate parameter provides a stable measure of cardiac nerve density that declined in a dose-dependent manner with increasing DMI dose (FIG. 9, “Kinetic modeling”).
For some analyses, Patlak graphical analysis was used, which uses a mathematical transformation of the kinetic data Cp(t) and Ct(t) to generate a Tatlak plot′ having a characteristic linear phase (see, e.g., Patlak and Blasberg (1985) “Graphical evaluation of blood-to-brain transfer constants from multiple-time uptake data. Generalizations.” J Cereb Blood Flow 5: 584-90). The slope of the linear portion of a Patlak plot, Kp (ml/min/g), provides an alternate estimate of the ‘net uptake rate constant’ Ki (ml/min/g). Thus, for the model structure used (FIG. 7), the slope of the Patlak plot is given by Kp≈(K1k3)/(k2+k3).
During the development of embodiments of the technology provided herein, the myocardial kinetics of [^18F]4F-MHPG was assessed using Patlak graphical analysis and metabolite-corrected plasma input functions. In this example, the Patlak plot is highly linear (r^2=1.00) and the estimated Patlak slope Kpatlak=0.252 ml/min/g. […] As such, regional estimates of the Patlak slope from Patlak analysis of the kinetics of [^18F]4F-MHPG serve as robust measures of regional cardiac sympathetic nerve density in patients with heart diseases.

Regarding `N=C(N)NCCOc1ccc(F)cc1` [4F-PEG, ^11C-4-fluoro-phenoxyethylguanidine], the “neuronal uptake rate / NET transport rate (Kup)” value in series [1] turned out to be 7.25 mL/min/g wet. For the same compound, in series [2], the half-life is 3.5 h.
Turning to `N=[11C](N)NCC(O)c1cccc(O)c1` (centres unmarked) [GMO, [^11C]guanyl-meta-octopamine, reference compound], in series [3], the “T1/2 for metabolic breakdown in plasma” value is “approximately 13 minutes”.
On to `N=C(N)NCCOc1cccc(O)c1` [MHPEG, ^11C-meta-hydroxy-phenoxyethylguanidine], for which, in series [1], the “neuronal uptake rate / NET transport rate (Kup)” value amounted to 5.37 mL/min/g wet and the “vesicular trapping / retention” value is given as “complete trapping”.
On to `N=C(N)NCCOc1ccccc1` [PEG, ^11C-phenoxyethylguanidine], for which the “neuronal uptake rate / NET transport rate (Kup)” value in series [1] is 5.37 mL/min/g wet. In series [2], the half-life is 5.7 h.
For `N=C(N)NCCc1ccc(F)c(O)c1` [[^11C]4F-MHPG] [^11C-4-fluoro-meta-hydroxyphenethylguanidine], in series [4], the “tissue concentration, adrenal medulla” value is listed as 0.56 ± 0.21 percentage of the injected dose per gram; the “tissue concentration, blood” value is given as 0.08 ± 0.01 percentage of the injected dose per gram; the “tissue concentration, left ventricle” value was 1.77 ± 0.27 percentage of the injected dose per gram; the “tissue concentration, liver” value is listed as 1.22 ± 0.18 percentage of the injected dose per gram. For the same compound, in series [4], the “tissue concentration, lung” value is 0.56 ± 0.15 percentage of the injected dose per gram; the “tissue concentration, muscle” value is on record as 0.07 ± 0.01 percentage of the injected dose per gram; the “tissue concentration, spleen” value was 0.52 ± 0.10 percentage of the injected dose per gram.
On to `N=[11C](N)NCCOc1ccc(O)c(F)c1` [^11C-3F-PHPEG, ^11C-3-fluoro-para-hydroxy-phenoxyethylguanidine], for which the “neuronal uptake rate / NET transport rate (Kup)” value in series [1] stood at 4.26 mL/min/g wet.
For the compound `N=[11C](N)NCCOc1ccc(F)c(O)c1` [^11C-4F-MHPEG, ^11C-4-fluoro-meta-phenoxyethylguanidine], in series [1], the “neuronal uptake rate / NET transport rate (Kup)” value amounted to 2.66 mL/min/g wet and the “vesicular trapping / retention” value is “effectively trapped inside storage vesicles”.
Take `N=C(N)NCC1COc2ccc(O)cc2O1` (centres unmarked) [^11C-7H-GOX, ^11C-7-hydroxy-guanoxan]: in series [1], the “retention time, compared between the two ring hydroxylated guanoxan analogs” value is reported as “longer retention time” and the “uptake, compared between the two ring hydroxylated guanoxan analogs” value is “more rapid uptake”.
As for `N=C(N)NCCc1ccc([18F])c(OS(=O)(=O)O)c1` [sulfur conjugate of [^18F]4-MHPG], the “activity at the norepinephrine transporter (NET)” value in series [5] is “inactive”.
